Data taken from patent US20120263794A1, “TREATMENT OF EYE DISEASES USING ENCAPSULATED CELLS ENCODING AND SECRETING A NEUROPROTECTIVE FACTOR AND/OR AN ANTI-ANGIOGENIC FACTOR” (BIOCOMPATIBLE UK LTD., priority 2009, published 2012).
Values belong to the molecule of their own block, whether it stands above or below them. Ends that are not written are not given here.

Tests used:
DPP-IV = target: T1, DPP-IV (Homo sapiens, UniProt P27487); test: In vitro human plasma stability of GLP-1CM peptides; assay type: in vitro ADME; conditions: 20 ng/ml, 37° C., 5% CO2, 3 hours, in contrast to native GLP-1(7-37)
T1 construct: incubated at concentrations of 20 ng/ml with human plasma; from tissue; host or cells: human plasma
T1 sequence (P27487 whole entry): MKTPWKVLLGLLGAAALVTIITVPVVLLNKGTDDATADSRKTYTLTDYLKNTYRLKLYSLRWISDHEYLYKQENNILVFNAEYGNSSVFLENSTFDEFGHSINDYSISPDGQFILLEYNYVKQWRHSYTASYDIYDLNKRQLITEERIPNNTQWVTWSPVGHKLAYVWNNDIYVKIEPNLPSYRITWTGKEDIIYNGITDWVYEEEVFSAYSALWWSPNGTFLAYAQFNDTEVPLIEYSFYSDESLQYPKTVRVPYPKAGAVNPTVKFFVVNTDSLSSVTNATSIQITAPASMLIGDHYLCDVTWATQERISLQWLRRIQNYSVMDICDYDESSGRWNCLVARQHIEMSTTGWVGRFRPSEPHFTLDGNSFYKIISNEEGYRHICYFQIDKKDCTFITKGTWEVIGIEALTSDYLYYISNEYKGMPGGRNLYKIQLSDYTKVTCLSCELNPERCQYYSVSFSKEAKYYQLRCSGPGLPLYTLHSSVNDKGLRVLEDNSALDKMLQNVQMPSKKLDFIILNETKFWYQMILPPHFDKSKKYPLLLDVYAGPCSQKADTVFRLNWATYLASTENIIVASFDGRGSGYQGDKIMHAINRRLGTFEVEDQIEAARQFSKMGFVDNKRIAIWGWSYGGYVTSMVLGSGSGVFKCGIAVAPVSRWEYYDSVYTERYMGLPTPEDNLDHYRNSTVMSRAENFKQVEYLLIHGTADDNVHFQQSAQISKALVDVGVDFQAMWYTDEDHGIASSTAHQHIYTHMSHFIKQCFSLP
Protocol: Synthetic GLP-1 peptides (SEQ ID NO:1syn, SEQ ID SEQ ID NO:7rec, SEQ ID NO:8syn) were incubated at concentrations of 20 ng/ml with human plasma at 37° C. and 5% CO2 for 3 hours. Dipeptidylpeptidase activity of the plasma was inhibited by a DPP-IV inhibitor (#DPP4, Biotrend).

Rin-5F cells = test: Anti-apoptotic efficacy, cycloheximid-induced apoptosis, AlamarBlue; assay type: cell-based, rat; conditions: 24 hours
Protocol: Apoptosis is induced in RIN-5F cells by addition of the protein biosynthesis inhibitor cycloheximid (CHX) in a final of 10 μg/ml and 100 μg/ml respectively.
40.000 Rin-5F cells were seeded per 96 well and cultivated for 2 days in RPMI supplemented with 1% L-Glutamin and 10% fetal calf serum. […] After 24 hours cell viability is quantified using AlamarBlue.

- stability in human plasma (active GLP, ELISA) (DPP-IV): significantly stabilized
Molecule: HAEGTFTSDVSSYLEGQAAKEFIAWLVKGRGRRDFPEEVAIAEELG [SEQ ID NO:8, GLP-1 (7-37)-IP2]

Molecule: GLP-1 (7-37)-IP2-RR-GLP1(7-37) [SEQ ID NO:6]
- stability in human plasma (active GLP, ELISA) (DPP-IV): significantly stabilized

Molecule: CM1: C-terminally elongated dimeric GLP-1 fusion peptide GLP-1 (7-37)-IP2-GLP-1 (7-37) produced by construct #217
- cell viability (Rin-5F cells; different concentrations, CHX 10 μg/ml and 100 μg/ml): significant (p<0.01) increase of cell viability
- anti-apoptotic effect (Rin-5F cells; in the presence of 1 nM, cycloheximid, serumfree, p<0.01): significant anti-apoptotic effect

B1: GLP-1 (7-37)-IP2-RR-GLP2 (protein)
chain: HAEGTFTSDVSSYLEGQAAKEFIAWLVKGRGRRDFPEEVAIAEELGRRHADGSFSDEMSTILDNLATRDFINWLIQTKITDKK
modifications: Description of sequence SEQ ID No 7 (ID7rec, CM2) corresponds to GLP-1(7-37)-IP2-RR-GLP2, 83 aa, 9,4 kD
notes: 83 aa, recombinant
- stability in human plasma (active GLP, ELISA) (DPP-IV): significantly stabilized
